Assay results: patent US20050014706A1, “Method of treating tuberculosis” (priority 2003, published 2005)
Values after ≈ are worked out from the molar mass of the structure shown.

Test system: M. tuberculosis H37Rv
Assay: MIC vs. M. tuberculosis H37Rv, microplate Alamar Blue assay (MABA)
Assay type: cell-based
Conditions: Table 3, parallel-synthesis carbazate library products

Compound | MIC
CC[C@H]1OC(=O)[C@H](C)[C@@H](O[C@H]2CC(C)(OC)[C@@H](O)[C@H](C)O2)[C@H](C)[C@@H](O[C@@H]2O[C@H](C)C[C@H](N(C)C)[C@H]2O)[C@](C)(OC)C[C@@H](C)C(=O)[C@H](C)[C@H]2N(NCCCc3ccccc3)C(=O)O[C@]12C (stereo partly shown) [A2′] | 10 µM (≈ 9.06 µg/mL)
CC[C@H]1OC(=O)[C@H](C)[C@@H](O[C@H]2CC(C)(OC)[C@@H](O)[C@H](C)O2)[C@H](C)[C@@H](O[C@@H]2O[C@H](C)C[C@H](N(C)C)[C@H]2O)[C@](C)(OC)C[C@@H](C)C(=O)[C@H](C)[C@H]2N(NC/C=C/c3ccccc3)C(=O)O[C@]12C (stereo partly shown) [A4′] | 7 µM (≈ 6.33 µg/mL)
CC[C@H]1OC(=O)[C@H](C)[C@@H](O[C@H]2CC(C)(OC)[C@@H](O)[C@H](C)O2)[C@H](C)[C@@H](O[C@@H]2O[C@H](C)C[C@H](N(C)C)[C@H]2O)[C@](C)(OC)C[C@@H](C)C(=O)[C@H](C)[C@H]2N(NC/C=C/c3cc(OC)c(O)c(OC)c3)C(=O)O[C@]12C (stereo partly shown) [A6′] | 10.2 µM (≈ 10 µg/mL)
CC[C@H]1OC(=O)[C@H](C)[C@@H](O[C@H]2CC(C)(OC)[C@@H](O)[C@H](C)O2)[C@H](C)[C@@H](O[C@@H]2O[C@H](C)C[C@H](N(C)C)[C@H]2O)[C@](C)(OC)C[C@@H](C)C(=O)[C@H](C)[C@H]2N(NCc3ccc([N+](=O)[O-])o3)C(=O)O[C@]12C (stereo partly shown) [A8′] | >9 µM
CC[C@H]1OC(=O)[C@H](C)[C@@H](O[C@H]2CC(C)(OC)[C@@H](O)[C@H](C)O2)[C@H](C)[C@@H](O[C@@H]2O[C@H](C)C[C@H](N(C)C)[C@H]2O)[C@](C)(OC)C[C@@H](C)C(=O)[C@H](C)[C@H]2N(NCc3ccoc3)C(=O)O[C@]12C (stereo partly shown) [A10′] | >7 µM
CC[C@H]1OC(=O)[C@H](C)[C@@H](O[C@H]2CC(C)(OC)[C@@H](O)[C@H](C)O2)[C@H](C)[C@@H](O[C@@H]2O[C@H](C)C[C@H](N(C)C)[C@H]2O)[C@](C)(OC)C[C@@H](C)C(=O)[C@H](C)[C@H]2N(NCc3cc(C(=O)OC)c(C)o3)C(=O)O[C@]12C (stereo partly shown) [A12′] | >12 µM
CCOC(=O)c1cc(-c2ccc(Cl)cc2)oc1CNN1C(=O)O[C@]2(C)[C@@H](CC)OC(=O)[C@H](C)[C@@H](O[C@H]3CC(C)(OC)[C@@H](O)[C@H](C)O3)[C@H](C)[C@@H](O[C@@H]3O[C@H](C)C[C@H](N(C)C)[C@H]3O)[C@](C)(OC)C[C@@H](C)C(=O)[C@H](C)[C@@H]12 (stereo partly shown) [B1′] | >18 µM
CC[C@H]1OC(=O)[C@H](C)[C@@H](O[C@H]2CC(C)(OC)[C@@H](O)[C@H](C)O2)[C@H](C)[C@@H](O[C@@H]2O[C@H](C)C[C@H](N(C)C)[C@H]2O)[C@](C)(OC)C[C@@H](C)C(=O)[C@H](C)[C@H]2N(NCc3nccn3C)C(=O)O[C@]12C (stereo partly shown) [B3′] | >18 µM
CC[C@H]1OC(=O)[C@H](C)[C@@H](O[C@H]2CC(C)(OC)[C@@H](O)[C@H](C)O2)[C@H](C)[C@@H](O[C@@H]2O[C@H](C)C[C@H](N(C)C)[C@H]2O)[C@](C)(OC)C[C@@H](C)C(=O)[C@H](C)[C@H]2N(NCc3cncn3C)C(=O)O[C@]12C (stereo partly shown) [B5′] | >27 µM
CCCCc1nc(CNN2C(=O)O[C@]3(C)[C@@H](CC)OC(=O)[C@H](C)[C@@H](O[C@H]4CC(C)(OC)[C@@H](O)[C@H](C)O4)[C@H](C)[C@@H](O[C@@H]4O[C@H](C)C[C@H](N(C)C)[C@H]4O)[C@](C)(OC)C[C@@H](C)C(=O)[C@H](C)[C@@H]23)c(Cl)[nH]1 (stereo partly shown) [B7′] | >19 µM
CC[C@H]1OC(=O)[C@H](C)[C@@H](O[C@H]2CC(C)(OC)[C@@H](O)[C@H](C)O2)[C@H](C)[C@@H](O[C@@H]2O[C@H](C)C[C@H](N(C)C)[C@H]2O)[C@](C)(OC)C[C@@H](C)C(=O)[C@H](C)[C@H]2N(NCc3c(C)[nH]c4ccc([N+](=O)[O-])cc34)C(=O)O[C@]12C (stereo partly shown) [B11′] | >22 µM
CC[C@H]1OC(=O)[C@H](C)[C@@H](O[C@H]2CC(C)(OC)[C@@H](O)[C@H](C)O2)[C@H](C)[C@@H](O[C@@H]2O[C@H](C)C[C@H](N(C)C)[C@H]2O)[C@](C)(OC)C[C@@H](C)C(=O)[C@H](C)[C@H]2N(NCc3cn(Cc4ccccc4)c4ccccc34)C(=O)O[C@]12C (stereo partly shown) [C2′] | 7 µM (≈ 7.05 µg/mL)
CC[C@H]1OC(=O)[C@H](C)[C@@H](O[C@H]2CC(C)(OC)[C@@H](O)[C@H](C)O2)[C@H](C)[C@@H](O[C@@H]2O[C@H](C)C[C@H](N(C)C)[C@H]2O)[C@](C)(OC)C[C@@H](C)C(=O)[C@H](C)[C@H]2N(NCc3cn(S(=O)(=O)c4ccc(C)cc4)c4ccccc34)C(=O)O[C@]12C (stereo partly shown) [C4′] | 11 µM (≈ 11.8 µg/mL)
CC[C@H]1OC(=O)[C@H](C)[C@@H](O[C@H]2CC(C)(OC)[C@@H](O)[C@H](C)O2)[C@H](C)[C@@H](O[C@@H]2O[C@H](C)C[C@H](N(C)C)[C@H]2O)[C@](C)(OC)C[C@@H](C)C(=O)[C@H](C)[C@H]2N(NCc3c(C)noc3C)C(=O)O[C@]12C (stereo partly shown) [C6′] | >17 µM
CC[C@H]1OC(=O)[C@H](C)[C@@H](O[C@H]2CC(C)(OC)[C@@H](O)[C@H](C)O2)[C@H](C)[C@@H](O[C@@H]2O[C@H](C)C[C@H](N(C)C)[C@H]2O)[C@](C)(OC)C[C@@H](C)C(=O)[C@H](C)[C@H]2N(/N=C/c3cc(-c4cccs4)on3)C(=O)O[C@]12C (stereo partly shown) [C8′] | ?9 μM
CC[C@H]1OC(=O)[C@H](C)[C@@H](O[C@H]2CC(C)(OC)[C@@H](O)[C@H](C)O2)[C@H](C)[C@@H](O[C@@H]2O[C@H](C)C[C@H](N(C)C)[C@H]2O)[C@](C)(OC)C[C@@H](C)C(=O)[C@H](C)[C@H]2N(NCc3c(-c4ccccc4)noc3C)C(=O)O[C@]12C (stereo partly shown) [C10′] | 12 µM (≈ 11.5 µg/mL)

Compound | MIC
CC[C@H]1OC(=O)[C@H](C)[C@@H](O[C@H]2CC(C)(OC)[C@@H](O)[C@H](C)O2)[C@H](C)[C@@H](O[C@@H]2O[C@H](C)C[C@H](N(C)C)[C@H]2O)[C@](C)(OC)C[C@@H](C)C(=O)[C@H](C)[C@H]2N(/N=C/c3c(C)noc3-c3ccccc3)C(=O)O[C@]12C (stereo partly shown) [C12′] | 9 µM (≈ 8.61 µg/mL)
CC[C@H]1OC(=O)[C@H](C)[C@@H](O[C@H]2CC(C)(OC)[C@@H](O)[C@H](C)O2)[C@H](C)[C@@H](O[C@@H]2O[C@H](C)C[C@H](N(C)C)[C@H]2O)[C@](C)(OC)C[C@@H](C)C(=O)[C@H](C)[C@H]2N(NCc3[nH]ncc3Br)C(=O)O[C@]12C (stereo partly shown) [D1′] | 23 µM (≈ 21.8 µg/mL)
CC[C@H]1OC(=O)[C@H](C)[C@@H](O[C@H]2CC(C)(OC)[C@@H](O)[C@H](C)O2)[C@H](C)[C@@H](O[C@@H]2O[C@H](C)C[C@H](N(C)C)[C@H]2O)[C@](C)(OC)C[C@@H](C)C(=O)[C@H](C)[C@H]2N(NCc3c(C(F)(F)F)nn(C)c3Cl)C(=O)O[C@]12C (stereo partly shown) [D3′] | 20 µM (≈ 19.7 µg/mL)
CC[C@H]1OC(=O)[C@H](C)[C@@H](O[C@H]2CC(C)(OC)[C@@H](O)[C@H](C)O2)[C@H](C)[C@@H](O[C@@H]2O[C@H](C)C[C@H](N(C)C)[C@H]2O)[C@](C)(OC)C[C@@H](C)C(=O)[C@H](C)[C@H]2N(NCc3c[nH]nc3-c3ccc(F)cc3)C(=O)O[C@]12C (stereo partly shown) [D5′] | 25 µM (≈ 24.1 µg/mL)
CC[C@H]1OC(=O)[C@H](C)[C@@H](O[C@H]2CC(C)(OC)[C@@H](O)[C@H](C)O2)[C@H](C)[C@@H](O[C@@H]2O[C@H](C)C[C@H](N(C)C)[C@H]2O)[C@](C)(OC)C[C@@H](C)C(=O)[C@H](C)[C@H]2N(NCc3cnn(-c4ccc(F)cc4)c3C)C(=O)O[C@]12C (stereo partly shown) [D7′] | 13 µM (≈ 12.7 µg/mL)
CC[C@H]1OC(=O)[C@H](C)[C@@H](O[C@H]2CC(C)(OC)[C@@H](O)[C@H](C)O2)[C@H](C)[C@@H](O[C@@H]2O[C@H](C)C[C@H](N(C)C)[C@H]2O)[C@](C)(OC)C[C@@H](C)C(=O)[C@H](C)[C@H]2N(NCc3cccnc3)C(=O)O[C@]12C (stereo partly shown) [D9′] | >15 µM
CC[C@H]1OC(=O)[C@H](C)[C@@H](O[C@H]2CC(C)(OC)[C@@H](O)[C@H](C)O2)[C@H](C)[C@@H](O[C@@H]2O[C@H](C)C[C@H](N(C)C)[C@H]2O)[C@](C)(OC)C[C@@H](C)C(=O)[C@H](C)[C@H]2N(NCc3ccnc4ccccc34)C(=O)O[C@]12C (stereo partly shown) [D11′] | 16 µM (≈ 14.9 µg/mL)
CC[C@H]1OC(=O)[C@H](C)[C@@H](O[C@H]2CC(C)(OC)[C@@H](O)[C@H](C)O2)[C@H](C)[C@@H](O[C@@H]2O[C@H](C)C[C@H](N(C)C)[C@H]2O)[C@](C)(OC)C[C@@H](C)C(=O)[C@H](C)[C@H]2N(NCc3cnccc3NC(=O)C(C)(C)C)C(=O)O[C@]12C (stereo partly shown) [E2′] | >27 µM
CC[C@H]1OC(=O)[C@H](C)[C@@H](O[C@H]2CC(C)(OC)[C@@H](O)[C@H](C)O2)[C@H](C)[C@@H](O[C@@H]2O[C@H](C)C[C@H](N(C)C)[C@H]2O)[C@](C)(OC)C[C@@H](C)C(=O)[C@H](C)[C@H]2N(NCc3cccnc3NC(=O)C(C)(C)C)C(=O)O[C@]12C (stereo partly shown) [E4′] | >27 µM
CC[C@H]1OC(=O)[C@H](C)[C@@H](O[C@H]2CC(C)(OC)[C@@H](O)[C@H](C)O2)[C@H](C)[C@@H](O[C@@H]2O[C@H](C)C[C@H](N(C)C)[C@H]2O)[C@](C)(OC)C[C@@H](C)C(=O)[C@H](C)[C@H]2N(/N=C/c3cnc(-c4ccccc4)nc3C)C(=O)O[C@]12C (stereo partly shown) [E6′] | 5 µM (≈ 4.84 µg/mL)
CC[C@H]1OC(=O)[C@H](C)[C@@H](O[C@H]2CC(C)(OC)[C@@H](O)[C@H](C)O2)[C@H](C)[C@@H](O[C@@H]2O[C@H](C)C[C@H](N(C)C)[C@H]2O)[C@](C)(OC)C[C@@H](C)C(=O)[C@H](C)[C@H]2N(NCc3c[nH]c(=O)[nH]c3=O)C(=O)O[C@]12C (stereo partly shown) [E8′] | >20 µM
CC[C@H]1OC(=O)[C@H](C)[C@@H](O[C@H]2CC(C)(OC)[C@@H](O)[C@H](C)O2)[C@H](C)[C@@H](O[C@@H]2O[C@H](C)C[C@H](N(C)C)[C@H]2O)[C@](C)(OC)C[C@@H](C)C(=O)[C@H](C)[C@H]2N(NCc3cccn3CCC#N)C(=O)O[C@]12C (stereo partly shown) [E10′] | 20 µM (≈ 18.4 µg/mL)
CC[C@H]1OC(=O)[C@H](C)[C@@H](O[C@H]2CC(C)(OC)[C@@H](O)[C@H](C)O2)[C@H](C)[C@@H](O[C@@H]2O[C@H](C)C[C@H](N(C)C)[C@H]2O)[C@](C)(OC)C[C@@H](C)C(=O)[C@H](C)[C@H]2N(NCc3cccn3-c3ccc(Cl)cc3)C(=O)O[C@]12C (stereo partly shown) [E12′] | 3.4 µM (≈ 3.32 µg/mL)
CC[C@H]1OC(=O)[C@H](C)[C@@H](O[C@H]2CC(C)(OC)[C@@H](O)[C@H](C)O2)[C@H](C)[C@@H](O[C@@H]2O[C@H](C)C[C@H](N(C)C)[C@H]2O)[C@](C)(OC)C[C@@H](C)C(=O)[C@H](C)[C@H]2N(NCc3cccn3-c3ccc(C(F)(F)F)cc3)C(=O)O[C@]12C (stereo partly shown) [F1′] | 17.6 µM (≈ 17.8 µg/mL)
CC[C@H]1OC(=O)[C@H](C)[C@@H](O[C@H]2CC(C)(OC)[C@@H](O)[C@H](C)O2)[C@H](C)[C@@H](O[C@@H]2O[C@H](C)C[C@H](N(C)C)[C@H]2O)[C@](C)(OC)C[C@@H](C)C(=O)[C@H](C)[C@H]2N(NCc3sc(C)nc3C)C(=O)O[C@]12C (stereo partly shown) [F5′] | >19 µM
